Source: patent US11839212B2, “Synergistic pesticidal compositions and methods for delivery of insecticidal active ingredients” (0903608 B.C. Ltd., priority 2018, dated 2023)
Read-outs that look alike come from different tables or passages of the source.

Legend:
Assay in all cases: Synergistic Growth Inhibition Assay (MIC and FIC index, 96-well, resazurin)
Type in all cases: cell-based
Fusarium oxysporum = conditions: Fusarium oxysporum, Compound B alone
Protocol: (§1) In some embodiments, the synergistic action between the pesticidal active ingredient, and the at least one C6-C10 (or alternatively C11 or C12) saturated or unsaturated aliphatic acid components of the pesticidal compositions according to embodiments of the present disclosure was tested using a Synergistic Growth Inhibition Assay, which is derived from and related to a checkerboard assay as is known in the art for testing of combinations of antimicrobial agents. In the Synergistic Growth Inhibition Assay used in accordance with some embodiments of the present disclosure, multiple dilutions of combinations of pesticidal active ingredient and at least one C6-C10 saturated or unsaturated aliphatic acid agents are tested in individual cells for inhibitory activity against a target pest or pathogenic organism. In one such embodiment, the combinations of pesticidal active ingredient and C6-C10 (or alternatively C11 or C12) saturated or unsaturated aliphatic acid agents may preferably be tested in decreasing concentrations. In a further such embodiment, the combinations of pesticidal active ingredient and C6-C10 (or alternatively C11 or C12) saturated or unsaturated aliphatic acid agents may be tested in increasing concentrations. These multiple combinations of the pesticidal active ingredient and at least one C6-C10 (or alternatively C11 or C12) saturated or unsaturated aliphatic acid agents may be prepared in 96-well microtiter plates. In one such embodiment, the Synergistic Growth Inhibition Assay then comprises rows which each contain progressively decreasing concentrations of the pesticidal active ingredient and one or more C6-C10 (or alternatively C11 or C12) saturated or unsaturated aliphatic acid agents to test for the MIC of the agents in combination at which growth of the target pest or pathogen is inhibited. Thus, each well of the microtiter plate is a unique combination of the two agents, at which inhibitory efficacy of the combination against the target pest or pathogen can be determined.
(§2) In one embodiment according to the present disclosure, for each row of microtiter cells in the Synergistic Growth Inhibition Assay, the FIC index is calculated from the lowest concentration of the pesticidal active ingredient and one or more C6-C10 saturated or unsaturated aliphatic acid agents necessary to inhibit growth of a target pest or pathogen. The FIC of each component is derived by dividing the concentration of the agent present in that well of the microtiter plate by the minimal inhibitory concentration (MIC) needed of that agent alone to inhibit growth of the target pest or pathogen. The FIC index is then the sum of these values for both agents in that well of the microtiter plate. […] Fractional inhibitory concentration indices may then used as measure of synergy. […] When the FIC index is equal to 1, the combination is additive.
(§3) Then, serial dilutions of these initial compositions in successive wells in the row of the microtiter plate were used to assay the pesticidal composition under the same conditions to determine the concentration of the composition combining the two agents corresponding to the microtiter well in which growth inhibition of the target pest or organism ceases.
Resazurin dye (also known as Alamar blue dye) was used as an indicator to determine the presence of growth or inhibition of growth of Fusarium oxysporum in the wells of the 96 well microtiter plates used in the exemplary Synergistic Growth Inhibition Assay. In addition to the color change of the resazurin dye in the presence of growth of the Fusarium oxysporum, an optical or visual examination of the microtiter well may also be made to additionally determine the presence of growth or inhibition of growth of the Fusarium oxysporum.

Botrytis cinerea = conditions: Botrytis cinerea, 48 h, 48 hours incubation
Protocol: as §1, §2, §3
(§4) Similarly to as described above, Resazurin was used as an indicator of growth or inhibition of growth of Botrytis cinerea in the exemplary Synergistic Growth Inhibition Assay. In addition to the color change of the resazurin, an optical or visual examination of the microtiter well may also be made to additionally determine the presence of growth or inhibition of growth of the Botrytis cinerea.

Sclerotinia sclerotiorum = conditions: Sclerotinia sclerotiorum, […]
Protocol: as §1, §2, §3
as §4, with “Sclerotinia sclerotiorum” for “Botrytis cinerea”, “Sclerotinia sclerotiorum.” for “Botrytis cinerea.”

Alternaria solani = conditions: for MIC: Alternaria solani
Protocol: as §1, §2, §3
A culture of the representative fungal pathogen, namely Fusarium oxysporum, Botrytis cinerea, or Sclerotinia sclerotiorum, for example, is grown to exponential phase in potato dextrose broth (PDB).

[1] = 48 h, Table 27, 48 hours incubation, read-out: MIC (B)
[2] = 48 h, Table 28, 48 hours incubation, read-out: MIC (B)
[3] = 48 h, Table 30, 48 hours incubation, read-out: MIC (B)
[4] = 48 h, Table 31, 48 hours incubation, read-out: MIC (B)
[5] = Table 43, Compound B alone, read-out: MIC (B)
[6] = Table 44, Compound B alone, read-out: MIC (B)
[7] = Table 45, Compound B alone, read-out: MIC (B)
[8] = Compound B alone, 7 days incubation, read-out: MIC (B)
[9] = Table 33, Compound B alone, 7 days incubation, read-out: MIC (B)
[10] = Table 34, Compound B alone, 7 days incubation, read-out: MIC (B)
[11] = Table 35, Compound B alone, 7 days incubation, read-out: MIC (B)
[12] = Table 41, Compound B alone, 7 days incubation, read-out: MIC (B)
[13] = Table 60, Compound B alone, 7 days incubation, read-out: MIC (B)
[14] = 24 h, Table 3, 24 hour incubation, read-out: MIC(B)
[15] = 24 h, Table 4, 24 hour incubation, read-out: MIC (B)
[16] = 48 h, Table 32, 48 hours incubation, read-out: MIC (B)
[17] = Table 56, Compound B alone, read-out: MIC (B)
[18] = Table 51, Compound B alone, read-out: MIC (B)
[19] = Table 59, Compound B alone, read-out: MIC (B)
[20] = Compound A alone, 7 days incubation, read-out: MIC (A)

Compound: CC/C=C/CC(=O)O [Trans-3-hexenoic acid, trans-3-hexenoic acid]
- MIC (Fusarium oxysporum; 24 h, Table 1, 24 hour incubation, read-out: MIC(B)): 312 µg/mL
- MIC (Fusarium oxysporum; 24 h, Table 2, 24 hour incubation, read-out: MIC (B)): 312 µg/mL
- MIC (Fusarium oxysporum; [1]): 312 µg/mL
- MIC (Fusarium oxysporum; [2]): 312 µg/mL
- MIC (Fusarium oxysporum; [3]): 312 µg/mL
- MIC (Fusarium oxysporum; [4]): 156 µg/mL
- MIC (Botrytis cinerea; [5]): 156 µg/mL
- MIC (Botrytis cinerea; [6]): 156 µg/mL
- MIC (Botrytis cinerea; [7]): 312 µg/mL
- MIC (Sclerotinia sclerotiorum; [8]): 312 µg/mL
- MIC (Sclerotinia sclerotiorum; [9]): 156 µg/mL
- MIC (Sclerotinia sclerotiorum; [10]): 156 µg/mL
- MIC (Sclerotinia sclerotiorum; [11]): 156 µg/mL
- MIC (Sclerotinia sclerotiorum; [12]): 156 µg/mL
- MIC (Alternaria solani; [13]): 312 µg/mL

Compound: C=CCCCCCCCC(=O)O [9-Decenoic acid, 9-decenoic acid]
- MIC (Fusarium oxysporum; [14]): 71.7 µg/mL
- MIC (Fusarium oxysporum; [15]): 71.7 µg/mL
- MIC (Fusarium oxysporum; [1]): 312 µg/mL
- MIC (Fusarium oxysporum; [2]): 312 µg/mL
- MIC (Fusarium oxysporum; [3]): 156 µg/mL
- MIC (Fusarium oxysporum; [16]): 78.1 µg/mL
- MIC (Botrytis cinerea; [5]): 156 µg/mL
- MIC (Botrytis cinerea; [6]): 78.1 µg/mL
- MIC (Botrytis cinerea; [7]): 78.1 µg/mL
- MIC (Botrytis cinerea; Table 46, Compound B alone, read-out: MIC (B)): 39.1 µg/mL
- MIC (Botrytis cinerea; Table 47, Compound B alone, read-out: MIC (B)): 78.1 µg/mL
- MIC (Botrytis cinerea; Table 48, Compound B alone, read-out: MIC (B)): 78.1 µg/mL
- MIC (Botrytis cinerea; Table 49, Compound B alone, read-out: MIC (B)): 156 µg/mL
- MIC (Botrytis cinerea; Table 50, Compound B alone, read-out: MIC (B)): 39.1 µg/mL
- MIC (Botrytis cinerea; Table 54, Compound B alone, read-out: MIC (B)): 78.1 µg/mL
- MIC (Botrytis cinerea; [17]): 78.1 µg/mL
- MIC (Botrytis cinerea; Table 58, Compound B alone, read-out: MIC (B)): 156 µg/mL
- MIC (Sclerotinia sclerotiorum; [8]): 78.1 µg/mL
- MIC (Sclerotinia sclerotiorum; [9]): 39.1 µg/mL
- MIC (Sclerotinia sclerotiorum; [11]): 39.1 µg/mL
- MIC (Sclerotinia sclerotiorum; Table 36, Compound B alone, 7 days incubation, read-out: MIC (B)): 39.1 µg/mL
- MIC (Sclerotinia sclerotiorum; Table 37, Compound B alone, 7 days incubation, read-out: MIC (B)): 156 µg/mL
- MIC (Sclerotinia sclerotiorum; Table 38, Compound B alone, 7 days incubation, read-out: MIC (B)): 78.1 µg/mL
- MIC (Sclerotinia sclerotiorum; Table 39, Compound B alone, 7 days incubation, read-out: MIC (B)): 39.1 µg/mL
- MIC (Sclerotinia sclerotiorum; Table 40, Compound B alone, 7 days incubation, read-out: MIC (B)): 78.1 µg/mL
- MIC (Sclerotinia sclerotiorum; [12]): 78.1 µg/mL
- MIC (Alternaria solani; [13]): 39.1 µg/mL

Compound: C=CCCCCCC(=O)O [7-Octenoic acid]
- MIC (Fusarium oxysporum; [1]): 312 µg/mL
- MIC (Fusarium oxysporum; [3]): 312 µg/mL
- MIC (Fusarium oxysporum; [16]): 156 µg/mL
- MIC (Alternaria solani; [8]): 156 µg/mL

Compound: CCCCCCC(=O)O [Heptanoic acid, heptanoic acid]
- MIC (Botrytis cinerea; Table 24, Compound B alone, read-out: MIC (B)): 156 µg/mL
- MIC (Sclerotinia sclerotiorum; Table 16, Compound B alone, incubation 7 days, read-out: MIC (B)): 39.1 µg/mL
- MIC (Sclerotinia sclerotiorum; Table 17, Compound B alone, incubation 7 days, read-out: MIC (B)): 39.1 µg/mL
- MIC (Sclerotinia sclerotiorum; Table 19, Compound B alone, incubation 7 days, read-out: MIC (B)): 39.1 µg/mL
- MIC (Alternaria solani; [8]): 156 µg/mL
- MIC (Alternaria solani; [13]): 156 µg/mL

Compound: CCCC/C=C/CC(=O)O [Trans-3-octenoic acid]
- MIC (Fusarium oxysporum; [1]): 156 µg/mL
- MIC (Fusarium oxysporum; [3]): 156 µg/mL
- MIC (Fusarium oxysporum; [16]): 156 µg/mL
- MIC (Alternaria solani; [8]): 156 µg/mL
- MIC (Alternaria solani; [13]): 156 µg/mL

Compound: O=C(O)CCCCCCCCCO [10-Hydroxydecanoic acid]
- MIC (Botrytis cinerea; read-out: MIC (B), Table 51, Compound B alone): 250 µg/mL
- MIC (Botrytis cinerea; read-out: MIC (B), Table 59, Compound B alone): 250 µg/mL
- MIC (Sclerotinia sclerotiorum; read-out: MIC (B), Compound B alone, 7 days incubation): 500 µg/mL
- MIC (Alternaria solani; read-out: MIC (B)): 1000 µg/mL

Compound: CCCCC=CCC(=O)O [3-Octenoic acid, 3-octenoic acid]
- MIC (Fusarium oxysporum; [14]): 147 µg/mL
- MIC (Fusarium oxysporum; [15]): 147 µg/mL
- MIC (Fusarium oxysporum; [3]): 156 µg/mL
- MIC (Fusarium oxysporum; [4]): 156 µg/mL
- MIC (Fusarium oxysporum; [16]): 156 µg/mL
- MIC (Alternaria solani; [13]): 156 µg/mL

Compound: CC(C)CC(=O)O [3-Methylbutyric acid]
- MIC (Botrytis cinerea; [18]): 312 µg/mL
- MIC (Botrytis cinerea; [19]): 312 µg/mL
- MIC (Sclerotinia sclerotiorum; [8]): 625 µg/mL
- MIC (Alternaria solani; [8]): 312 µg/mL

Compound: CC/C=C\CC(=O)O [Cis-3-hexenoic acid]
- MIC (Sclerotinia sclerotiorum; [10]): 156 µg/mL
- MIC (Alternaria solani; [8]): 312 µg/mL

Compound: CC(C)CC(C)c1sccc1NC(=O)c1cn(C)nc1C(F)(F)F (stereo not shown) [Penthiopyrad, reference compound]
- MIC (Botrytis cinerea; Table 56, Compound A alone, read-out: MIC (A)): 250 µg/mL
- MIC (Sclerotinia sclerotiorum; [20]): 500 µg/mL
- MIC (Alternaria solani; [20]): 500 µg/mL

Compound: CCC(O)C(=O)O (stereo not shown) [2-Hydroxybutyric acid]
- MIC (Botrytis cinerea; [18]): 5000 µg/mL
- MIC (Botrytis cinerea; [17]): 2500 µg/mL
- MIC (Botrytis cinerea; Table 57, Compound B alone, read-out: MIC (B)): 2500 µg/mL
- MIC (Botrytis cinerea; [19]): 2500 µg/mL
- MIC (Sclerotinia sclerotiorum; [8]): 5000 µg/mL
- MIC (Alternaria solani; [8]): 2500 µg/mL
- MIC (B) (Alternaria solani; Compound B alone, 7 days incubation): 2500 µg/mL

Compound: CCCCCC(O)CC(=O)O (stereo not shown) [3-Hydroxyoctanoic acid]
- MIC (Botrytis cinerea; [18]): 625 µg/mL
- MIC (Botrytis cinerea; [17]): 625 µg/mL
- MIC (Botrytis cinerea; [19]): 625 µg/mL
- MIC (Alternaria solani; [8]): 1250 µg/mL

Compound: CCCCC(CC)C(=O)O (stereo not shown) [2-Ethylhexanoic acid]
- MIC (Botrytis cinerea; [18]): 156 µg/mL
- MIC (Botrytis cinerea; [19]): 156 µg/mL
- MIC (Sclerotinia sclerotiorum; [8]): 156 µg/mL
- MIC (Alternaria solani; [8]): 156 µg/mL

Compound: CCCCCCC(O)C(=O)O (stereo not shown) [2-Hydroxyoctanoic acid]
- MIC (Botrytis cinerea; [18]): 625 µg/mL
- MIC (Sclerotinia sclerotiorum; [8]): 625 µg/mL
- MIC (Alternaria solani; [8]): 625 µg/mL

Compound: CCCC(C)CC(=O)O (stereo not shown) [3-Methylhexanoic acid]
- MIC (Botrytis cinerea; [18]): 125 µg/mL
- MIC (Botrytis cinerea; [19]): 125 µg/mL
- MIC (Alternaria solani; [8]): 250 µg/mL

Compound: OC(Cc1ccccc1Cl)(Cn1nc[nH]c1=S)C1(Cl)CC1 (stereo not shown) [Prothioconazole, reference compound]
- MIC (Botrytis cinerea; Table 57, Compound A alone, read-out: MIC (A)): 31.2 µg/mL
- MIC (Sclerotinia sclerotiorum; [20]): 62.5 µg/mL
- MIC (Alternaria solani; [20]): 500 µg/mL
